Data on one molecule can be found in US9777258B2, “Methods for differentiating cells into hepatic stellate cells and hepatic sinusoidal endothelial cells, cells produced by the method, and methods for using the cells” (Katholieke Universiteit Leuven, priority 2010, dated 2017).

The test system of the data set is Cyp1a2. Nature of the data set: Cytochrome P450 activity (P450-Glo Assay, induction of Cyp1a2). Particulars: mouse iPS-derived hepatocyte-like cells kept in final maturation medium until day 42; incubation with 100 μM phenobarbital. How it is done: Cytochrome P450 activity. Cytochrome […] activity was detected by using the non-lytic method of P450-Glo™ Assay (Promega V8771). Mouse iPS cells were incubated with luminogenic substrate (Luciferin-ME) for 4 hours at 37° C. 50 μl was mixed with 50 μl Luciferin Detection Reagent in triplicate. Mean luminescence was calculated from 11 consecutive time points with 2 minutes interval. Induction of Cyp1a2 was performed by incubation with 100 μM phenobarbital.

Turning to `CCC1(c2ccccc2)C(=O)NC(=O)NC1=O` [phenobarbital], the “increase of Cyp1a2 activity” value is reported as 45%.
